Assay results reported in publication PMC7738508, “A therapeutic combination of two small molecule toxin inhibitors provides broad preclinical efficacy against viper snakebite” (Nature Communications, 2020).
Values joined by “and” are separate entries in the source; they are usually repeats but may differ in a detail not shown here. Equal values may be shown once. Read-outs that look alike come from different tables or passages of the source.

What was measured:
[1] = test system: SVMP bioactivity of the four active venoms (E. ocellatus, E. carinatus, B. asper, B. arietans); assay: in vitro kinetic fluorogenic SVMP assay, viper venoms overall; format: biochemical
Method: (§1) The SVMP assay measuring metalloproteinase activity and the plasma assay measuring coagulation in the presence or absence of venoms and inhibitors were performed as previously described. The SVMP assay kinetically measured cleavage of a quenched fluorogenic substrate (ES010, R&D Biosystems) by venom in the presence or absence of inhibitors.
(§2) Briefly, 10 µl of the substrate (supplied as a 6.2 mM stock) was used per 5 ml reaction buffer (150 mM NaCl, 50 mM Tris-Cl pH 7.5). Reactions consisted of 10 µl of venom ± inhibitors in PBS and 90 µl of substrate. Venoms were used at 1 µg/reaction and final inhibitor concentrations ranged from 150 µM to 150 nM. Samples were preincubated for 30 min at 37 °C and pipetted in triplicate into 384-well plates (Greiner). Thereafter, data was collected on an Omega FLUOstar (BMG Labtech) instrument at an excitation wavelength of 320 nm and emission wavelength of 405 nm at 25 °C for 1 h. The areas under the curve (AUCs) in the 0–40 min interval were calculated for each sample using MARS data analysis software v3.31 (BMG Labtech); this time point was chosen as the time where all fluorescence curves had reached a plateau (maximum fluorescence). For comparing venom-only samples, the means of at least three independent experimental runs for each condition, expressed as AUCs (n ≥ 3), were plotted at each inhibitor concentration with standard error of the mean (SEM). To determine inhibitor efficacy, the AUCs for each of the samples that consisted of venom + inhibitors were transformed and expressed as percentages of the venom-only sample (where the venom was 100%). The negative control (PBS-only) was also expressed relative to the venom, and the variation in background was presented as an interval delineated by the lowest and highest values in the PBS-only samples across concentrations and inhibitors for a specific venom.

[2] = test system: coagulopathic activity of Daboia russelii venom (citrated bovine plasma); assay: plasma clotting assay; format: biochemical; set-up: key to maximum clotting velocity: max of first derivative of A595 clot curve (max clotting velocity); conditions: for maximum clotting velocity: Daboia russelii venom 100 ng, independent repeats
Method: (§3) We used a previously developed plasma clotting assay[35] to measure venom-induced coagulation. Briefly, 100 ng of each venom was incubated at 37 °C for 30 min in the presence or absence of inhibitors (150 µM to 150 nM final concentrations). The final reaction consisted of 10 µl venom ± inhibitors in PBS, 20 µl 20 mM CaCl2, and 20 µl citrated bovine plasma (VWR). The samples were pipetted in triplicate into 384-well plates, and absorbance monitored at 595 nm for 2 h at 25 °C on an Omega FLUOstar instrument. We calculated the maximum clotting velocity of each of the curves as per clot waveform analysis, by calculating the maximum of the first derivative. The means of at least three independent experimental runs for each condition were plotted at each inhibitor concentration with SEMs.

[3] = test system: procoagulant activity of Echis carinatus venom (citrated bovine plasma); assay: plasma clotting assay; format: biochemical; set-up: key: max of first derivative of A595 clot curve (max clotting velocity); conditions: Echis carinatus venom 100 ng, independent repeats
Method: as §3

water solubility = format: physicochemical
[4] = test system: procoagulant activity of viper venoms (citrated bovine plasma); assay: plasma clotting assay, viper venoms overall; format: biochemical; conditions: range across all venoms; lower end of dimercaprol and marimastat ranges given as < 0.15; read-out: IC50, inhibition of procoagulant venom activity
Method: as §3

[5] = test system: procoagulant activity of Bothrops asper venom (citrated bovine plasma); assay: plasma clotting assay; format: biochemical; conditions: Bothrops asper venom 100 ng, independent repeats
Method: as §3

[6] = test system: procoagulant activity of Echis ocellatus venom (citrated bovine plasma); assay: plasma clotting assay; format: biochemical; conditions: Echis ocellatus venom 100 ng, independent repeats
Method: as §3

[7] = test system: Bothrops asper venom SVMP activity; assay: fluorogenic SVMP assay; format: biochemical; conditions: independent repeats
Method: as §1, §2

[8] = test system: Bitis arietans venom SVMP activity; assay: fluorogenic SVMP assay; format: biochemical; conditions: independent repeats
Method: as §1, §2

[9] = test system: Echis carinatus venom SVMP activity; assay: fluorogenic SVMP assay; format: biochemical; conditions: independent repeats
Method: as §1, §2

[10] = test system: Echis ocellatus venom SVMP activity; assay: fluorogenic SVMP assay; format: biochemical; conditions: independent repeats
Method: as §1, §2

[11] = test system: pro- and anticoagulant fractions of D. russelii venom; assay: nanofractionation with plasma coagulation assay; format: biochemical, Daboia russelii; conditions: nanofractionated D. russelii venom; inhibitor 0.0064 to 20 µM
Method: Fifty microlitres of venom solution (D. russelii; 1 mg/ml) was injected into a Shimadzu LC-2010 system with nanofractionation in parallel. Separation was performed on a Waters XBridge reversed-phase C18 column (250 × 4.6 mm^2 column with 3.5 μm pore-size) at 30 °C. The total flow rate of the mobile phase solution was 0.5 ml/min with eluent A (98% H2O, 2% acetonitrile [ACN], 0.1% formic acid [FA]) and eluent B (98% ACN, 2% H2O, 0.1% FA). Liquid chromatography gradients consisted of a linear increase of mobile phase B from 0 to 50% in 20 min, followed by a linear increase to 90% B in 4 min, then isocratic at 90% B for 5 min, after which the percentage of mobile phase B was decreased from 90 to 0% in 1 min, followed by 10 min at 0% B to re-equilibrate. The effluent was split in a 1:9 ratio of which the 10% fraction was sent to a Shimadzu SPD-M20A prominence diode array detector and the 90% fraction was directed to a nanofractionation collector which dispensed the fractions into transparent 384-well plates (F-bottom, rounded square well, polystyrene, without lid, clear, non-sterile; Greiner Bio One, Alphen aan den Rijn, The Netherlands) at a resolution of 6 s/well. The collector used was either a commercially available FractioMate^TM nanofractionator (SPARK-Holland & VU, Netherlands, Emmen & Amsterdam) controlled by FractioMator software v1.0 (Spark-Holland, The Netherlands, Emmen) or a modified Gilson 235P autosampler controlled by in-house written software Ariadne v1.8 (VU Amsterdam). The well plates with venom fractions were then dried overnight in a Christ Rotational Vacuum Concentrator (RVC 2 − 33 CD plus, Zalm en Kipp, Breukelen, The Netherlands) equipped with a cooling trap, and maintained at −80 °C during operation. The freeze-dried plates were then stored at −80 °C prior to bioassaying.
The final assay concentrations of the inhibitors tested in the assay were 20, 4, 0.8, 0.16, 0.032, and 0.0064 µM. The plates were then incubated for 30 min at room temperature, and during this time bovine plasma (Sterile Filtered, Biowest, Nuaille, France) was defrosted in a water bath and centrifuged for 4 min at 805 × g prior to use. […] The plate was then read immediately for absorbance kinetically for 100 min at 595 nm at 25 °C using a Varioskan Flash Multimode Reader (Thermo Fisher Scientific, Ermelo, The Netherlands). The obtained results were normalized by dividing the slope measured in each well by the median of all slope values across the plate, and the processed coagulation chromatograms were plotted to visualize very fast coagulation, medium increased coagulation and anticoagulation, as previously described.

[12] = cited from earlier work
E. ocellatus venom = assay: in vivo preincubation model of envenoming (i.v.); set-up: species or system CD-1 mice
Method: All animal experiments were conducted using protocols approved by the Animal Welfare and Ethical Review Boards of the Liverpool School of Tropical Medicine and the University of Liverpool, and performed in specific pathogen-free conditions under licensed approval (PPL #4003718 and #P5846F90) of the UK Home Office and in accordance with the Animal [Scientific Procedures] Act 1986 and institutional guidance on animal care. All experimental animals (18–20 g [4–5 weeks old], male, CD-1 mice, Charles River, UK) were housed in groups of five with environmental enrichment, water and food ad libitum and their health monitored daily during acclimatization. The experimental design was based upon 3R-refined WHO-recommended protocols[28],[41], with animals randomized and observers being blinded to the experimental condition. The median lethal doses (venom LD50) used for E. ocellatus (Nigeria), E. carinatus (India), B. asper (Costa Rica), D. russelii (Sri Lanka) and B. arietans (Nigeria) venoms were previously determined[25],[41],[44],[45].
All experimental doses were prepared to a volume of 200 µl in PBS and incubated at 37 °C for 30 min prior to their intravenous injection via the tail vein. Animals were monitored for 6 h, and euthanized via rising concentrations of CO2 upon observation of previously defined humane end points that are predicators of lethality (e.g., seizure, pulmonary distress, paralysis, hemorrhage)[28]. Deaths, time of death, and survivors were recorded; where death/time of death actually represents the implementation of euthanasia based on defined humane end points.
For all experimental animals described above, blood samples were collected via cardiac puncture immediately post-euthanasia. Plasma was separated by centrifugation at 400 × g for 10 min and stored at −80 °C. We assessed the levels of thrombin-antithrombin complexes (TAT) and soluble thrombomodulin using mouse ELISA Kits (ab137994 and ab209880, Abcam), following the manufacturer’s protocol. All available plasma samples (some were unobtainable via cardiac puncture due to extensive internal hemorrhage) were assessed if the time of death within the group varied, whereas three samples were randomly chosen if the time of death was the same (e.g., either very rapid death within 2 min, or survival until the end of the experiment [360 min or 24 h]). The resulting data was plotted as the median of duplicate measurements for each animal and is presented with standard deviations (SDs).

## CNC(=O)[C@H](Cc1ccccc1)NC(=O)[C@H](CC(C)C)[C@H](CSc1cccs1)C(=O)NO [batimastat]
[1]; four active venoms, marimastat 150 nM to 150 µM, batimastat […] and 150 nM
  neutralization of SVMP bioactivity: equivalent efficacy to marimastat
[2]; D. russelii venom, high doses
  effect on clotting after complete neutralization of SVMP activity: revealed clear venom anticoagulant effects
[2]; inhibitor 15 µM
  maximum clotting velocity: 0.01373 and 0.01942 and 0.02131
[3]; inhibitor 15 µM
  maximum clotting velocity: 0.03565 and 0.03449
[3]; inhibitor 150 µM
  maximum clotting velocity: 0.0287 and 0.02696 and 0.02803
Water solubility
  water solubility (words): water insolubility
Water solubility; listed as Batimastat
  water solubility (words): low water solubility
[4]
  IC50: < 150 nM

## OCC(S)CS (stereo not drawn) [dimercaprol, 2,3-dimercapto-1-propanol]
[1]; across the active venoms
  lowest concentration generally effective / required to fully inhibit SVMP activities: 1.5 µM
[1]; range across the active venoms, read-out: IC50s, inhibition of venom SVMP activity
  IC50: 20 to 400 nM
[2]; inhibitor 15 µM
  maximum clotting velocity: 0.02868 and 0.02941 and 0.02393
[2]; inhibitor 150 µM
  maximum clotting velocity: 0.007941 and 0.0123
[3]; inhibitor 15 µM
  maximum clotting velocity: 0.039 and 0.037 and 0.04491
[3]; inhibitor 150 µM
  maximum clotting velocity: 0.03967 and 0.03833 and 0.05167
[5]; inhibitor 15 µM
  maximum clotting velocity: 0.02441 and 0.02559 and 0.02164
[5]; inhibitor 150 µM
  maximum clotting velocity: 0.02412 and 0.03441 and 0.03148
[6]; inhibitor 15 µM
  maximum clotting velocity: 0.031 and 0.039 and 0.025
[6]; inhibitor 150 µM
  maximum clotting velocity: 0.038 and 0.0465 and 0.041
[4]
  IC50: 150 to 3700 nM
[7]; inhibitor 15 µM
  SVMP activity, percentage of the venom-only sample: 36.4776% and 36.4971% and 29.4073%
[7]; inhibitor 150 µM
  SVMP activity, percentage of the venom-only sample: 26.9201% and 36.0411% and 27.8434%
[8]; inhibitor 15 µM
  SVMP activity, percentage of the venom-only sample: 16.3406% and 15.4164% and 15.5101%
[8]; inhibitor 150 µM
  SVMP activity, percentage of the venom-only sample: 15.3818% and 14.876% and 14.901%
[9]; inhibitor 15 µM
  SVMP activity, percentage of the venom-only sample: 11.4563% and 14.5818% and 10.6976%
[9]; inhibitor 150 µM
  SVMP activity, percentage of the venom-only sample: 11.223% and 13.9151% and 10.3819%
[10]; inhibitor 15 µM
  SVMP activity, percentage of the venom-only sample: 17.6103% and 18.1155% and 16.6523%
[10]; inhibitor 150 µM
  SVMP activity, percentage of the venom-only sample: 15.563% and 16.8718% and 16.6432%

## CCc1c(C(=O)C(N)=O)c2c(OCC(=O)O)cccc2n1Cc1ccccc1 [varespladib]
[2]; inhibitor 15 µM
  maximum clotting velocity: 0.09594 and 0.09681 and 0.08696
[2]; inhibitor 150 µM
  maximum clotting velocity: 0.1113 and 0.1116 and 0.1203
[11]
  inhibition of anticoagulant venom fractions: effectively inhibited
  inhibition of procoagulant venom fractions: some inhibitory effect against procoagulant venom toxins, but only at very high doses (20 µM)
[12]; Phase 1 and 2
  tolerability: well tolerated
[12]; Phase 2B, same daily dose, >300 patients for >6 months
  risk of major adverse cardiovascular events: no greater risk of major adverse cardiovascular events
[12]; Phase 3, acute coronary syndrome patients, 500 mg oral daily
  risk of myocardial infarction vs placebo: greater risk of myocardial infarction than those receiving placebo
[12]
  oral bioavailability: good oral bioavailability
[12]; delivered by iv infusion
  half-life: 5 h
Water solubility
  water solubility (words): water insolubility
E. ocellatus venom; 45 µg E. ocellatus venom preincubated with 60 µg of each drug, i.v., 6 h
  protection against venom-induced lethality: failed to prevent lethality over the full experimental time course
E. ocellatus venom; plasma after euthanasia, E. ocellatus venom + 60 µg of each drug, venom-only mean 1127.3, normal mice 10.2–15.9
  thrombin-antithrombin (TAT) levels, range in group: 472.7 to 649.9 ng/mL
